US6713475B2, “Tricyclic benzodiazepines as vasopressin receptor antagonists” (Ortho-McNeil Pharmaceutical, Inc., priority 1999, dated 2004)

Key:
human V-1 receptor = molecular target: T1, human V-1 receptor (Homo sapiens, UniProt P37288); assay: In vitro recombinant vasopressin receptor binding assay (V1 Bdg), displacement of 3H-arginine vasopressin; settings: for inhibition at 0.1 µM: read-out: V1 Bdg (% inh, 0.1 uM)
T1 construct: expressed in transfected cells; host or cells: HEK-293
Method: (§1) In vitro Recombinant Vasopressin Receptor Binding Assay
(§2) Compounds were assessed for their ability to displace ^3H-arginine vasopressin from the human V-1 or V-2 receptor in HEK-293 cells. Assay buffer is 50 mM Tris-Cl, 5 mM MgCl2, 0.1% BSA (pH 7.5) containing 5 ug/ml of aprotinin, leupeptin, pepstatin, 50 ug/ml bacitracin, and 1 mM Pefabloc. ^3H-vasopressin is ^3H-arginine-8-vasopressin (68.5 Ci/mmol, final concentration in assay is 0.65-0.75 nM). Into wells of 96-well round bottom polypropylene plates were added buffer, test compound, membrane (containing cloned human V-1 or V-2 receptor), and ^3H-vasopressin. The reaction plates were allowed to sit at room temperature for one hour. The samples were filtered through Unifilter GF/C plates (presoaked in 0.3 polyethyleneimine). The plates were washed 5 times with cold physiological saline containing 0.05% Tween 20. After drying, the bottom of the filter plates were sealed and 0.025 ml of Microscint-20 was added to each filter. The top of the plate was sealed, and the plate was counted. Non-specific binding was determined by the addition of 1.25 uM arginine-8-vasopressin in those wells.

V2 = V2 (Homo sapiens, UniProt P30518); assay: In vitro recombinant vasopressin receptor binding assay (V2 Bdg), displacement of 3H-arginine vasopressin; design: expressed in transfected cells; host or cells: HEK-293; settings: for IC50: membrane with cloned human V-2 receptor (HEK-293); for V2 Bdg % inh: 0.1 uM, printed in parentheses in place of IC50
Method: as §1
as §2, with “Assay buffer is 50 mM Tris-Cl, 5 mM MgCl2, 0.1% BSA (pH 7.5) containing 5 ug/ml of aprotinin, leupeptin, pepstatin, 50 ug/ml bacitracin, and 1 mM Pefabloc. ^3H-vasopressin is ^3H-arginine-8-vasopressin (68.5 Ci/mmol, final concentration in assay is 0.65-0.75 nM).” left out, “counted.” for “counted. Non-specific binding was determined by the addition of 1.25 uM arginine-8-vasopressin in those wells.”

T1 sequence (P37288 whole entry): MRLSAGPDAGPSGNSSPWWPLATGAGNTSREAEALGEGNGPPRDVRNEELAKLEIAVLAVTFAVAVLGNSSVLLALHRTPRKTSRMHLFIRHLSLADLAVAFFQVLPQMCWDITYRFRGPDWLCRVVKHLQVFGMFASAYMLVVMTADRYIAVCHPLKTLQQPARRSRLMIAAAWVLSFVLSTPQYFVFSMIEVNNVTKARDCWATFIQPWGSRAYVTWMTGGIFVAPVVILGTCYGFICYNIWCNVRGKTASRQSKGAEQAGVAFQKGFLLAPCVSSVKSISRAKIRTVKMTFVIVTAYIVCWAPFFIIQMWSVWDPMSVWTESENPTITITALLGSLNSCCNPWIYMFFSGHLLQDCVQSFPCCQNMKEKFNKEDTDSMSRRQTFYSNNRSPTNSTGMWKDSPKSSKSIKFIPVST

Compound | inhibition at 0.1 µM (human V-1 receptor) | IC50 (V2) | V2 Bdg % inh (V2) | further results
O=C(Nc1ccc(C(=O)N2C[C@H]3COCCN3Cc3ccccc32)c(Cl)c1)c1cc(O)ccc1-c1ccccc1 [Compound 8, (S)-2-Phenyl-5-hydroxy-N-[3-chloro-4-(1,3,4,12a-tetrahydro-6H-[1,4]oxazino[4,3-a][1,4]-benzodiazepin-11(12H)-yl-carbonyl)phenyl]benzamide] | 32% | 27 nM | – | –
Cc1ccc2c(c1)CN1CCSCC1CN2C(=O)c1ccc(NC(=O)c2ccccc2-c2ccccc2)cc1 (racemic) [Compound 36, (RS)-2-Phenyl-N-[4-(8-methyl-1,3,4,12a-tetrahydro-6H-[1,4]thiazino[4,3-a][1,4]-benzodiazepin-11(12H)-yl-carbonyl)phenyl]benzamide] | 76% | 18 nM | – | –
O=C(Nc1ccc(C(=O)N2CC3COCCN3Cc3ccccc32)cc1)c1ccccc1-c1ccccc1 (racemic) [Compound 20, (RS)-2-Phenyl-N-[4-(1,3,4,12a-tetrahydro-6H-[1,4]oxazino[4,3-a][1,4]-benzodiazepin-11(12H)-yl-carbonyl)phenyl]benzamide] | 69% | 8 nM | – | –
Cc1ccccc1C(=O)Nc1ccc(C(=O)N2CC3CN(C)CCN3Cc3ccccc32)c(Cl)c1 (racemic) [Compound 61, (RS)-2-Methyl-N-[3-chloro-4-(1,3,4,12a-tetrahydro-2-methyl-6H-[1,4]pyrazino[4,3-a][1,4]-benzodiazepin-11(12H)-yl-carbonyl)phenyl]benzamide] | – | – | (28%/0.I uM) | V1 Bdg % inh (human V-1 receptor; 1 uM): (21%/1 uM)
CN1CCN2Cc3ccccc3N(C(=O)c3ccc(NC(=O)c4ccccc4-c4ccccc4)cc3)CC2C1 (racemic) [Compound 69, (RS)-2-Phenyl-N-[4-(1,3,4,12a-tetrahydro-2-methyl-6H-[1,4]pyrazino[4,3-a][1,4]-benzodiazepin-11(12H)-yl-carbonyl)phenyl]benzamide] | – | – | (38%/0.1 uM) | V1 Bdg % inh (human V-1 receptor; 1 uM): (22%/1 uM)
(RS)-2-Methyl-3-chloro-N-[3-chloro-4-(1,3,4,12a-tetrahydro-2-methyl-6H-[1,4]pyrazino[4,3-a][1,4]-benzodiazepin-11(12H)-yl-carbonyl)phenyl]benzamide [Compound 95] | – | – | (38%/0.1 uM) | V1 Bdg % inh (human V-1 receptor; 1 uM): (10%/1 uM)
CN1CCN2Cc3ccccc3N(C(=O)c3ccc(NC(=O)c4cc(F)ccc4-c4ccccc4)cc3Cl)CC2C1 (racemic) [Compound 100, (RS)-2-Phenyl-5-fluoro-N-[3-chloro-4-(1,3,4,12a-tetrahydro-2-methyl-6H-[1,4]pyrazino[4,3-a][1,4]-benzodiazepin-11(12H)-yl-carbonyl)phenyl]benzamide] | – | 37 nM | – | inhibition at 1 µM (human V-1 receptor; 1 uM, read-out: V1 Bdg % inh): 6%; inhibition at 0.1 µM (V2; read-out: V2 Bdg % inh): 72%
COc1cccc(-c2ccccc2C(=O)Nc2ccc(C(=O)N3CC4CN(C)CCN4Cc4ccccc43)c(Cl)c2)c1 (racemic) [Compound 68, (RS)-2-(3-Methoxy-phenyl)-N-[3-chloro-4-(1,3,4,12a-tetrahydro-2-methyl-6H-[1,4]pyrazino[4,3-a][1,4]-benzodiazepin-11(12H)-yl-carbonyl)phenyl]benzamide] | – | – | (37%/0.1 uM) | V1 Bdg % inh (human V-1 receptor; 1 uM): (7%/1 uM)
O=C(Nc1ccc(C(=O)N2CC3CSCCN3Cc3cc(F)c(F)cc32)cc1)c1ccccc1-c1ccccc1 (racemic) [Compound 35, (RS)-2-Phenyl-N-[4-(8,9-difluoro-1,3,4,12a-tetrahydro-6H-[1,4]thiazino[4,3-a][1,4]-benzodiazepin-11(12H)-yl-carbonyl)phenyl]benzamide] | – | 38 nM | – | inhibition at 10 µM (human V-1 receptor; read-out: V1 Bdg % inh): 15%
Cc1ccccc1C(=O)Nc1ccc(C(=O)N2CC3COCCN3Cc3ccccc32)c(C)c1 (racemic) [Compound 27, (RS)-2-M ethyl-N-[3-methyl-4-(1,3,4,12a-tetrahydro-6H-[1,4]oxazino[4,3-a][1,4]-benzodiazepin-11(12H)-yl-carbonyl)phenyl]benzamide] | 7% | 13 nM | – | –
Cc1ccc(-c2ccccc2C(=O)Nc2ccc(C(=O)N3CC4COCCN4Cc4ccccc43)c(C)c2)cc1 (racemic) [Compound 28, (RS)-2-(4-Methyl-phenyl)-N-[3-methyl-4-(1,3,4,12a-tetrahydro-6H-[1,4]oxazino[4,3-a][1,4]-benzodiazepin-11(12H)-yl-carbonyl)phenyl]benzamide] | 14% | 10 nM | – | –
O=C(Nc1ccc(C(=O)N2CC3CSCCN3Cc3cc(F)ccc32)c(Cl)c1)c1ccccc1-c1ccccc1 (racemic) [Compound 38, (RS)-2-Phenyl-N-[3-chloro-4-(8-fluoro-1,3,4,12a-tetrahydro-6H-[1,4]thiazino[4,3-a][1,4]-benzodiazepin-11 (12H)-yl-carbonyl)phenyl]benzamide] | 9% | 18 nM | – | –
COc1ccc2c(c1)CN1CCSCC1CN2C(=O)c1ccc(NC(=O)c2ccccc2-c2ccccc2)cc1 (racemic) [Compound 31, (RS)-2-Phenyl-N-[4-(8-methoxy-1,3,4,12a-tetrahydro-6H-[1,4]thiazino[4,3-a][1,4]-benzodiazepin-11(12H)-yl-carbonyl)phenyl]benzamide] | – | 43 nM | – | inhibition at 10 µM (human V-1 receptor; read-out: V1 Bdg % inh): 27%
Cc1ccccc1C(=O)Nc1ccc(C(=O)N2CC3COCCN3Cc3ccccc32)cc1 (racemic) [Compound 26, (RS)-2-Methyl-N-[4-(1,3,4,12a-tetrahydro-6H-[1,4]oxazino[4,3-a][1,4]-benzodiazepin-11(12H)-yl-carbonyl)phenyl]benzamide] | – | – | (65%/0.1 uM) | V1 Bdg (% inh, 0.1 uM) (human V-1 receptor): 58%
Cc1ccc(-c2ccccc2C(=O)Nc2ccc(C(=O)N3CC4COCCN4Cc4ccccc43)c(Cl)c2)cc1 (racemic) [Compound 25, (RS)-2-(4-Methyl-phenyl)-N-[3-chloro-4-(1,3,4,12a-tetrahydro-6H-[1,4]oxazino[4,3-a][1,4]-benzodiazepin-11(12H)-yl-carbonyl)phenyl]benzamide] | 60% | 12 nM | – | –
Cc1cccc(C)c1C(=O)Nc1ccc(C(=O)N2CC3COCCN3Cc3ccccc32)c(Cl)c1 (racemic) [Compound 10, (RS)-2,6-Dimethyl-N-[3-chloro-4-(1,3,4,12a-tetrahydro-6H-[1,4]oxazino[4,3-a][1,4]-benzodiazepin-11(12H)-yl-carbonyl)phenyl]benzamide] | 15% | 9 nM | – | –
(RS)-2-(2-Fluoro-phenyl)-N-[4-(1,3,4,12a-tetrahydro-6H-[1,4]thiazino[4,3-a][1,4]-benzodiazepin-11(12H)-yl-carbonyl)phenyl]benzamide [Compound 45] | – | – | (69%/0.1 uM) | V1 Bdg (% inh, 0.1 uM) (human V-1 receptor): 15%
Cc1ccccc1C(=O)Nc1c(C)cc(C(=O)N2CC3CN(C)CCN3Cc3ccccc32)cc1C (racemic) [Compound 80, (RS)-2-Methyl-N-[2,6-dimethyl-4-(1,3,4,12a-tetrahydro-2-methyl-6H-[1,4]pyrazino[4,3-a][1,4]-benzodiazepin-11(12H)-yl-carbonyl)phenyl]benzamide] | – | – | (6%/0.1 uM) | V1 Bdg % inh (human V-1 receptor; 1 uM): (19%/1 uM)
O=C(Nc1ccc(C(=O)N2CC3CSCCN3Cc3cc(F)ccc32)cc1)c1ccccc1-c1ccccc1 (racemic) [Compound 32, (RS)-2-Phenyl-N-[4-(8-fluoro-1,3,4,12a-tetrahydro-6H-[1,4]thiazino[4,3-a][1,4]-benzodiazepin-11(12H)-yl-carbonyl)phenyl]benzamide] | – | 20 nM | – | inhibition at 10 µM (human V-1 receptor; read-out: V1 Bdg % inh): 44%
